Here are results for seven molecules from patent US9462793B2, “Mouse carrying a knock-out mutation of the Qpct-gene” (PROBIODRUG AG, priority 2008, dated 2016).

Series [1] concerns the target T1, Qpct (Homo sapiens, UniProt Q16769). The series can be described thus: Inhibition of Qpct by chelators (metal dependence). It is filed as biochemical. The following applies: human Qpct and other animal Qpcts.
The conditions of series [2]: cited from earlier work.
In the next series the test system is mammalian Qpct. The following applies: cited from earlier work.
Series [3] concerns the target T1, Qpct. The series can be described thus: pH-dependence of Qpct catalyzed conversion of Glu-βNA. It is filed as biochemical. From the text:
(§1) However, in the pH-range of about 5.2-6.5, between their respective pKa-values, the two functional groups are present both in non-ionized forms, in concentrations of about 1-10% (—NH2) or 10-1% (—COOH) of total N-terminal Glu-containing peptide. As a result, over a mildly acidic pH-range species of N-terminal Glu-peptides are present which carry both groups uncharged, and, therefore, it is possible that Qpct could stabilize the intermediate of intramolecular cyclization into the pGlu-peptide, i.e. if the γ-carboxylic group is protonated, the carbonyl carbon is electrophilic enough to allow nucleophilic attack by the unprotonated α-amino group. At this pH the hydroxyl ion functions as a leaving group. These assumptions are corroborated by the pH-dependence data obtained for the Qpct catalyzed conversion of Glu-βNA. In contrast to glutamine conversion of Gln-βNA by Qpct, the pH-optimum of catalysis shifts to the acidic range around pH 6.0, i.e. the pH-range, in which substrate molecule species are simultaneously abundant carrying a protonated 7-carboxyl and unprotonated α-amino group.

Series [4] is described as follows: pKa of α-amino group determined by titration. It is filed as physicochemical.
From the text: as §1

T1 sequence (Q16769 29-361): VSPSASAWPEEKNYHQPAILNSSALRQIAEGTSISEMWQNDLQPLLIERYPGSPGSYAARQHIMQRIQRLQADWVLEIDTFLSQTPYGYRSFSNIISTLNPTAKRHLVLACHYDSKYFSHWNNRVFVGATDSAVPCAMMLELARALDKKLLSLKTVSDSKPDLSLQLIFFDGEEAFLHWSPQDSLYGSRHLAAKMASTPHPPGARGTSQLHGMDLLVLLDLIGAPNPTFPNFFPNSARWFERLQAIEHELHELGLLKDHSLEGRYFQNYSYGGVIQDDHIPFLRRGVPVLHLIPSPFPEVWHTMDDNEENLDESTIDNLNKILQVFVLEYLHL

As for `O=C(O)c1cccc(C(=O)O)n1` [dipicolinic acid], the “inhibition characteristics of Qpct” value against Qpct [1] is “inhibition”.
Regarding `N[C@@H](CCC(=O)O)C(=O)O` [Glutamate], in series [2], the “pKa-value for the α-amino moiety” value is given as around 7.5 and the “pKa-value for the γ-carboxylic moiety” value is on record as “about 4.2”.
On to `O=C(O)CN(CCN(CC(=O)O)CC(=O)O)CC(=O)O` [EDTA], for which the “Inhibition of a mammalian Qpct” value in the series on mammalian Qpct is recorded as “did not inhibit”.
For reduced 6-methylpterin, in the series with mammalian Qpct, the “Inhibition of a mammalian Qpct” value is given as “Inhibition of a mammalian Qpct was only detected”.
As to `N[C@@H](CCC(=O)O)C(=O)Nc1ccc2ccccc2c1` [Glu-βNA], the “kinetically determined pKa-value” at Qpct [3] is reported as 7.55+/−0.02. In addition, the “pKa of the α-amino group, determined by titration” value in series [4] was found to be 7.57±0.05.
For `Oc1cccc2cccnc12` [8-hydroxy-quinoline], the “inhibition characteristics of Qpct” value against Qpct [1] is reported as “inhibition”.
Turning to `c1cnc2c(c1)ccc1cccnc12` [1,10-phenanthroline], the “inhibition characteristics of Qpct” value against Qpct [1] is on record as “inhibition”. The “Inhibition of a mammalian Qpct” value in the series on mammalian Qpct is reported as “Inhibition of a mammalian Qpct was only detected”.
